Values belong to the compound of their own block, whether it stands above or below them. Calls of active or inactive are those of the source.
Assays:
HEK293 [1] = test: NOD1 signaling inhibitors, primary screen, cell-based, luminescence, uHTS (AID 1578); type: functional; settings: Homo sapiens
Cysteine protease ATG4B = molecular target: T1, Cysteine protease ATG4B (Homo sapiens, UniProt Q9Y4P1); type: functional;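 note: Fluorescence-based dose-response confirmation assay measuring inhibition of ATG4B activity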
T1 sequence (Q9Y4P1 whole entry): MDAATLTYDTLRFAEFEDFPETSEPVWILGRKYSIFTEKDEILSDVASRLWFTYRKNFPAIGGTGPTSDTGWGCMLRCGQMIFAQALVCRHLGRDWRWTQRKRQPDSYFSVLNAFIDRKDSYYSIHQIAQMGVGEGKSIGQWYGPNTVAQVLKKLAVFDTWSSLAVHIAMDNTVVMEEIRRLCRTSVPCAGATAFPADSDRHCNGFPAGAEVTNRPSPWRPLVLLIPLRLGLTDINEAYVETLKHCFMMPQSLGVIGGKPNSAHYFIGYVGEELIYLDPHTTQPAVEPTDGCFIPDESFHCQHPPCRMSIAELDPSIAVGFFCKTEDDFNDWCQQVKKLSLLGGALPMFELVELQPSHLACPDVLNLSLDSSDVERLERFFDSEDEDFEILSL

HEK293 [2] = test: cells; type: functional, cell-based; settings: Homo sapiens
HEK293 [3] = test: NOD2 signaling inhibitors in MDP-stimulated cells, cell-based, uHTS, luminescence (AID 2001); type: functional; settings: Homo sapiens
Genome polyprotein = Genome polyprotein (dengue virus type 2, UniProt P29990); test: Dengue-2 NS5 methyltransferase inhibitors, primary screen, biochemical, confirmation dose response (AID 588689); type: functional
Sequence of Genome polyprotein (P29990 2492-3391 limits assumed): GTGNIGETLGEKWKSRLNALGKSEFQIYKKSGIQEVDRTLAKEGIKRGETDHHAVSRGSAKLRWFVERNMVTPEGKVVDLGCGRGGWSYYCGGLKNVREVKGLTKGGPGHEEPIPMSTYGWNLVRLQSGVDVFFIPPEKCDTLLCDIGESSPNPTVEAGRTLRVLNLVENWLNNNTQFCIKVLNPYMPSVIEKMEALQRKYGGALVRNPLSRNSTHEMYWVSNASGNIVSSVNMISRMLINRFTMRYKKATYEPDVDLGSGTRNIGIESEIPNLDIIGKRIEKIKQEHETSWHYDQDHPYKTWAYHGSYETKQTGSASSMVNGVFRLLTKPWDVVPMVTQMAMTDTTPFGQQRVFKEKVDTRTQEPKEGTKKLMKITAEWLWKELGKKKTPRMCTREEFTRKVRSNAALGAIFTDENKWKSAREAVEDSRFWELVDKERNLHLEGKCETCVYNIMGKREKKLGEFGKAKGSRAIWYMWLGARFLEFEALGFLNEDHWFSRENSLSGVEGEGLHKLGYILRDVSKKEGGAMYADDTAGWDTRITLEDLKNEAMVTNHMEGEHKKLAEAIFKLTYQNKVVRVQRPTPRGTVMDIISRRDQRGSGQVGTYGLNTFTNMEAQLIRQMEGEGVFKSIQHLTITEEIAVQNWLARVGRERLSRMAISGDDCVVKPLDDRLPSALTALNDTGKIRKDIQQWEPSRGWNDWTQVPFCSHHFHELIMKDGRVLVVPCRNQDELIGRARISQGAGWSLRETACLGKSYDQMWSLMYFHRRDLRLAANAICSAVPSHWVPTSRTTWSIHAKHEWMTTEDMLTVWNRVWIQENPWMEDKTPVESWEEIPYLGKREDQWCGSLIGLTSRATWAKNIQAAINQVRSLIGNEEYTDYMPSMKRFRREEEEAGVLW

Phospholipase A2 = Phospholipase A2 (Homo sapiens, UniProt P04054); type: functional;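 note: confirmatory dose-response counterscreen on phospholipase A2, testing hits that came from an ultra-high-throughput screen for ATG4B inhibitors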
Sequence of Phospholipase A2 (P04054 whole entry): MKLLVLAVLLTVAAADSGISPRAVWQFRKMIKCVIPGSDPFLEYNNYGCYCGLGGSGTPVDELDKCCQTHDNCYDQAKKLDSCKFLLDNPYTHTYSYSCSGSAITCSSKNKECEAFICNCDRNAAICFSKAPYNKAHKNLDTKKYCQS

HEK293 [4] = test: cells; type: functional, cell-based; settings: Homo sapiens; remark: listed apart in the source
[5] = molecular target: Induced myeloid leukemia cell differentiation protein Mcl-1 (Homo sapiens, UniProt Q07820); type: functional
Sequence of Induced myeloid leukemia cell differentiation protein Mcl-1 (Q07820 whole entry): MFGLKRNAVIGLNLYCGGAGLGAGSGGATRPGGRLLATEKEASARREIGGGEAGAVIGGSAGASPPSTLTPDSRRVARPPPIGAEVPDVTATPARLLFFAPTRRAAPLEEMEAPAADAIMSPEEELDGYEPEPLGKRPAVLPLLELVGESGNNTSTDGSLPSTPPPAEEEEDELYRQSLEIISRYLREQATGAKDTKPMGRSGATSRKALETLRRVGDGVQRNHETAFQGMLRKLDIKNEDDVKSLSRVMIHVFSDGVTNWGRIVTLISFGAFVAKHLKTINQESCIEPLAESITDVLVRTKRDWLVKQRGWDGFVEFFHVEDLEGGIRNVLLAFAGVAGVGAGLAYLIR

[6] = CRF-BP/CRF-R2 complex antagonists, dose response, cell-based, uHTS hits, 384-well (AID 651639); type: functional, Homo sapiens; settings: read-out: IC50_Mean
Cytochrome P450 1A2 = molecular target: T2, Cytochrome P450 1A2 (Homo sapiens, UniProt P05177);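 note: PubChem cytochrome P450 panel assay, CYP1A2 panel member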
T2 sequence (P05177 whole entry): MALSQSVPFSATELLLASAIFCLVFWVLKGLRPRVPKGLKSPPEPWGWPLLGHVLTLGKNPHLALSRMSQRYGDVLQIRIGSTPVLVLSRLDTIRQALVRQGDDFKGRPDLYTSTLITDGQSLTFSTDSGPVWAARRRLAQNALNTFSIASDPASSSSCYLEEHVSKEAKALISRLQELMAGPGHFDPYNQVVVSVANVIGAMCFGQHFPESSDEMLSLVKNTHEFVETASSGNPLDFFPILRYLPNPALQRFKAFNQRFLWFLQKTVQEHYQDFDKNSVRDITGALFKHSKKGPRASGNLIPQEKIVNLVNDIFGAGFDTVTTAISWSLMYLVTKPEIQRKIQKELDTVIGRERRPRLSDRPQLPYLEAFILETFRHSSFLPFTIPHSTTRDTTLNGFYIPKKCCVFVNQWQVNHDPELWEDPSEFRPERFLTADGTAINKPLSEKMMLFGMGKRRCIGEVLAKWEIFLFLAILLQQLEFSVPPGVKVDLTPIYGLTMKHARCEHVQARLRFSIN

Cytochrome P450 2D6 = Cytochrome P450 2D6 (Homo sapiens, UniProt P10635);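 note: CYP2D6 member of a cytochrome P450 panel assay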
Sequence of Cytochrome P450 2D6 (P10635 whole entry): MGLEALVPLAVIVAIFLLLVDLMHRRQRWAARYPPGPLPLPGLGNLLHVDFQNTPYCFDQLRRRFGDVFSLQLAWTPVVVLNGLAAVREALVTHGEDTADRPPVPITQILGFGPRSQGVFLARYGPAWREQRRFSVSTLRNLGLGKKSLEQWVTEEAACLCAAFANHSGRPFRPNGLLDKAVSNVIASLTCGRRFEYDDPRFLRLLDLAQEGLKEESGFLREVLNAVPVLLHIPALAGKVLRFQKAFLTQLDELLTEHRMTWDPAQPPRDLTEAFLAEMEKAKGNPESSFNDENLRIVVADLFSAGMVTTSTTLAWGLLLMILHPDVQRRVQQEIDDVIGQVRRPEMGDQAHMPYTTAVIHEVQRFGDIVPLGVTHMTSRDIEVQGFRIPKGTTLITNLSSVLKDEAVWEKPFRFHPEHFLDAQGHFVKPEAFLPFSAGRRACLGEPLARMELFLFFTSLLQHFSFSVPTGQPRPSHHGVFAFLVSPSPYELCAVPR

Cytochrome P450 3A4 = Cytochrome P450 3A4 (Homo sapiens, UniProt P08684);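 note: CYP3A4 tested as one member of a cytochrome P450 panel screen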
[7] = molecular target: T3, Corticotropin-releasing factor receptor 2/Corticotropin-releasing factor-binding protein (Homo sapiens, UniProt P24387+Q13324); test: activators of CRF receptor 2 with binding protein – uHTS hits, confirmation (AID 602473); type: functional; settings: read-out: EC50_Mean
T3 sequence (Q13324 whole entry): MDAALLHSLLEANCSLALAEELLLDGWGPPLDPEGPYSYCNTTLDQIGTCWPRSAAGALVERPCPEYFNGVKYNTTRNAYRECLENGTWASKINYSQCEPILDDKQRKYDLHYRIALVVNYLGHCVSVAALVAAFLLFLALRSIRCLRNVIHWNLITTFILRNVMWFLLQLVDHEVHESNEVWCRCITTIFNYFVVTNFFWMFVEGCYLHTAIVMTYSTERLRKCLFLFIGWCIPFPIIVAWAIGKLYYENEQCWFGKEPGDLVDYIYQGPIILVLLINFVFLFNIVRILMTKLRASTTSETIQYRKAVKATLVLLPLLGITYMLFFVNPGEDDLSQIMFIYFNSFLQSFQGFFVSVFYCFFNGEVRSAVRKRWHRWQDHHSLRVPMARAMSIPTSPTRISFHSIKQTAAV
T3 sequence (P24387 whole entry): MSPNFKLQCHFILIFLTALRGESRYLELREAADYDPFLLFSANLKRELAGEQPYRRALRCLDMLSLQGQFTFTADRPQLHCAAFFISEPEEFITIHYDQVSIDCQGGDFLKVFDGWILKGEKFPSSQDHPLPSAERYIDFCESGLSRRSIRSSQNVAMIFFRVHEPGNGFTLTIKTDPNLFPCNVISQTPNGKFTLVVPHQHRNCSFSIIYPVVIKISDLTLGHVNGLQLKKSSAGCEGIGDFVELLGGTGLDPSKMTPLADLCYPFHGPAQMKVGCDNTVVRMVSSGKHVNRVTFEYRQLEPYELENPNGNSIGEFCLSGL

[8] = molecular target: T3, Corticotropin-releasing factor receptor 2/Corticotropin-releasing factor-binding protein; test: Dose Response confirmation of uHTS hits for small molecule antagonists of the CRF-binding protein and CRF-R2 receptor complex.; type: functional; settings: read-out: IC50_Mean
[9] = molecular target: T4, Polyadenylate-binding protein 1 (Homo sapiens, UniProt P11940); test: PABP1 MLLE–PAM2 interaction inhibitors, dose response, miRNA deadenylation inhibitor project, biochemical, fluorescence polarization, Cy5-PAM2 peptide, secondary (AID 602260); type: functional; settings: read-out: IC50_Mean
T4 sequence (P11940 whole entry): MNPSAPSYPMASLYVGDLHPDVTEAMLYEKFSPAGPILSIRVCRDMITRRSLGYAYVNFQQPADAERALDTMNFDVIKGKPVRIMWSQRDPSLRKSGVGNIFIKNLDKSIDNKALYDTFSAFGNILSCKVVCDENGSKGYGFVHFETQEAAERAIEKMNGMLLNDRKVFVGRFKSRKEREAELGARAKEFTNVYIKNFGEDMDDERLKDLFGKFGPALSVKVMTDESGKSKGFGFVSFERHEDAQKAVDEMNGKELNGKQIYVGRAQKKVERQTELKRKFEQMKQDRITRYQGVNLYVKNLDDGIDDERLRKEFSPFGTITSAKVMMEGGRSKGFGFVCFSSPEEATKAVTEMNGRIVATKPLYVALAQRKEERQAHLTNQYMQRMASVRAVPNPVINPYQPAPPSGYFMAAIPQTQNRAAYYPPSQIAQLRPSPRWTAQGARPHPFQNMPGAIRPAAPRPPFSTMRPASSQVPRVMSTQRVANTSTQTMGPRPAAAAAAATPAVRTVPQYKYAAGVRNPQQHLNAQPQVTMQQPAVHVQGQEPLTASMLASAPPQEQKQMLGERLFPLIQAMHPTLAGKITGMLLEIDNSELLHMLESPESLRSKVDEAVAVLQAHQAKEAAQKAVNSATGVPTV

[10] = molecular target: Dual specificity tyrosine-phosphorylation-regulated kinase 1A (Rattus norvegicus, UniProt Q63470); type: biochemical, Homo sapiens
[11] = molecular target: T4, Polyadenylate-binding protein 1; test: PABP1 MLLE–PAM2 binding inhibitor potency, dose response, biochemical, fluorescence polarization, FITC-PAM2 peptide (AID 602259); type: functional; settings: read-out: IC50_Mean
Cytochrome P450 2C9 = Cytochrome P450 2C9 (Homo sapiens, UniProt P11712)
Sequence of Cytochrome P450 2C9 (P11712 whole entry): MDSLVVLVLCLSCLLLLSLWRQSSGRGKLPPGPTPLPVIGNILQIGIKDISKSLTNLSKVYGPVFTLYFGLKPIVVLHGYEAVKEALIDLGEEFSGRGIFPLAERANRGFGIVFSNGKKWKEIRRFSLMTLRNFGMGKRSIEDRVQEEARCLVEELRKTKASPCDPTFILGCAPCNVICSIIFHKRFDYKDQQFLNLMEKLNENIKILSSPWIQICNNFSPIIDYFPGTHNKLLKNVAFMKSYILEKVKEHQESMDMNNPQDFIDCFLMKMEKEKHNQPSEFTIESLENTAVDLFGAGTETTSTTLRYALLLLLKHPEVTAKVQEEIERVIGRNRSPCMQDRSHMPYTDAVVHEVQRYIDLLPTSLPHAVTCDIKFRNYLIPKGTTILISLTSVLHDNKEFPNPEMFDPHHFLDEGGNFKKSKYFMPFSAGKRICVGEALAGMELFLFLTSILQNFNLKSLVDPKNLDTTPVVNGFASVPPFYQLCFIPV

[12] = Luminescence Cell-Based Dose Confirmation HTS to Identify Inhibitors of Platelet Dense Granule Release. [Related pubchem assays: 1663 (Primary HTS), 1678 (Summary of Project)]; type: functional
[13] = molecular target: Luciferin 4-monooxygenase (Photinus pyralis, UniProt P08659); test: firefly luciferase enzyme inhibitors, dose response, biochemical, luminescence (AID 1891)
Sequence of Luciferin 4-monooxygenase (P08659 whole entry): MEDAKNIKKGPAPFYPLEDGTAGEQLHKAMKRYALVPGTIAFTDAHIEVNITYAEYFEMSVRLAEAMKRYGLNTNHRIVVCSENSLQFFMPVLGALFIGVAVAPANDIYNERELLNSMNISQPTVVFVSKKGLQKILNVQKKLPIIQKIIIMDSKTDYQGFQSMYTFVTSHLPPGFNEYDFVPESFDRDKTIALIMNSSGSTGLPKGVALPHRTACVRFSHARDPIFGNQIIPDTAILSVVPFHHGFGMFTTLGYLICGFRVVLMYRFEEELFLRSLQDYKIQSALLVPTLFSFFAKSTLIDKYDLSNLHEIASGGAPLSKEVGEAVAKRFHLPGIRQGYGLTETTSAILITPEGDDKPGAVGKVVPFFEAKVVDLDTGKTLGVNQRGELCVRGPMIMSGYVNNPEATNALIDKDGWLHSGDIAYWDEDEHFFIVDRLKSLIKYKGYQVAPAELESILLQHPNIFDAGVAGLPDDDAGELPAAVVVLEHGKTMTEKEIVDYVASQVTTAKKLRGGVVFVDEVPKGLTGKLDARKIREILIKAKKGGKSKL

[14] = molecular target: T5, Probable nicotinate-nucleotide adenylyltransferase (Staphylococcus aureus (strain N315), UniProt P65502); type: functional, Staphylococcus aureus subsp. aureus N315;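 for IC50 Mean: confirmatory dose-response retesting of NadD inhibitor hits first found in an ultra-high-throughput screen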
[15] = molecular target: T5, Probable nicotinate-nucleotide adenylyltransferase; type: functional, Staphylococcus aureus subsp. aureus N315; settings: read-out: IC50_Mean
[16] = molecular target: T6, RNA-binding protein pos-1 (Caenorhabditis elegans, UniProt G5EF15); test: inhibitors of POS-1/mex-3 RNA binding, dose response, biochemical, fluorescence polarization (AID 1964);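 note: purified POS-1 fused to maltose binding protein made in E. coli; potency of compounds blocking POS-1 binding to fluorescent RNA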
T6 sequence (G5EF15 whole entry): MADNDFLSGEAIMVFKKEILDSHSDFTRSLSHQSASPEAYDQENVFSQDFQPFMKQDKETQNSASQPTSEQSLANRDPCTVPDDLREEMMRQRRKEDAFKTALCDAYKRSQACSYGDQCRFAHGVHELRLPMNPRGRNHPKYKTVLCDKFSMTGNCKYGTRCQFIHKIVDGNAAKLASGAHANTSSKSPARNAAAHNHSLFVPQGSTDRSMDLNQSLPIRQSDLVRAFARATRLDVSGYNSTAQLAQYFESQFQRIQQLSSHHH

[17] = molecular target: 72 kDa type IV collagenase (Homo sapiens, UniProt P08253); test: Dose Response validation of uHTS RPN11 inhibitor hits using a MMP-2 Fluorescence assay.; type: functional
Sequence of 72 kDa type IV collagenase (P08253 whole entry): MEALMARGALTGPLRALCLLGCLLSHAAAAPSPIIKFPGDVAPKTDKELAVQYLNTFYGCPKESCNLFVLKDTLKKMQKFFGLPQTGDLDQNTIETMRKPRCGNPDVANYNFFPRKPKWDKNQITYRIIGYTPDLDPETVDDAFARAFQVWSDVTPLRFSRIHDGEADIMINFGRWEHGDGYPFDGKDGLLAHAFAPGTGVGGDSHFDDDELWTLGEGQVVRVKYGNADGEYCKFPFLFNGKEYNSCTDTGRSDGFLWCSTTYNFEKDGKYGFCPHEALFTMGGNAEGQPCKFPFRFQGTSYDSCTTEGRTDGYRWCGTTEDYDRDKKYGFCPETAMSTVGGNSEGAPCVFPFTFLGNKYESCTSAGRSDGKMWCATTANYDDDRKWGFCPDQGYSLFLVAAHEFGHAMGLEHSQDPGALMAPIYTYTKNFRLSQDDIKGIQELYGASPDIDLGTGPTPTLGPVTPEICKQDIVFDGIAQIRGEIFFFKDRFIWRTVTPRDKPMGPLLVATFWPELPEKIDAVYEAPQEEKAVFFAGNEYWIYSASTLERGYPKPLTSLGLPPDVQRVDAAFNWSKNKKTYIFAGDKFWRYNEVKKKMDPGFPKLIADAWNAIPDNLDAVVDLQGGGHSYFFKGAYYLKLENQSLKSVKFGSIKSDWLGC

[18] = molecular target: 26S proteasome non-ATPase regulatory subunit 14 (Homo sapiens, UniProt O00487); test: inhibition of proteasome subunit RPN11 – biochemical, fluorescence polarization, uHTS hits, confirmation (AID 602368); type: functional
Sequence of 26S proteasome non-ATPase regulatory subunit 14 (O00487 whole entry): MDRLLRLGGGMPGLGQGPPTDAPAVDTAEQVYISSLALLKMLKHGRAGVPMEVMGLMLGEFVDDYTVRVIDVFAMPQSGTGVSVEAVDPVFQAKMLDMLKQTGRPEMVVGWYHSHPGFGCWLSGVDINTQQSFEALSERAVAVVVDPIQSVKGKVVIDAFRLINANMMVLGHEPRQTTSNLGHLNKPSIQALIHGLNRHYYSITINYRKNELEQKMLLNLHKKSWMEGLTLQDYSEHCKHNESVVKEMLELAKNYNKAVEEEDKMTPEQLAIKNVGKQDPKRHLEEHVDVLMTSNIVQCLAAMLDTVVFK

[19] = molecular target: T7, Zinc finger protein mex-5 (Caenorhabditis elegans, UniProt Q9XUB2); test: MEX-5/TCR-2 RNA interaction inhibitors, dose response, biochemical, C. elegans, fluorescence polarization (AID 1960)
T7 sequence (Q9XUB2 whole entry): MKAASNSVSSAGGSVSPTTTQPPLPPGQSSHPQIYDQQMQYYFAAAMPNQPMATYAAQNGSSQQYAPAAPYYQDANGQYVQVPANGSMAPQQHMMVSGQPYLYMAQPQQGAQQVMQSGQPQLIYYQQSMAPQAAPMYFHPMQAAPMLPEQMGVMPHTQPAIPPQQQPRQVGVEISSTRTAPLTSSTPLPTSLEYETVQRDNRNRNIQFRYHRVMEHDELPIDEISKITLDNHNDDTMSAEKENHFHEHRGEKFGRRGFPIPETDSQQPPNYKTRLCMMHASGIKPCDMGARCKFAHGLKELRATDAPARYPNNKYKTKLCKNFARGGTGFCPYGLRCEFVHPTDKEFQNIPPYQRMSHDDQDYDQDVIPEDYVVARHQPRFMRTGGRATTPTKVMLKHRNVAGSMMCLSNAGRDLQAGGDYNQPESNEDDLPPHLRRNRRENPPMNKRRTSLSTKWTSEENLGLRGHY

Prothrombin = Prothrombin (Bos taurus, UniProt P00735); test: thrombin inhibition, dose response, biochemical, fluorescence polarization, uHTS hits (AID 602369); type: functional
Melanocortin receptor 4 = Melanocortin receptor 4 (Homo sapiens, UniProt P32245); type: functional, cell-based;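 note: Cell-based assay with luminescence read-out, confirmatory dose-response testing for agonist activity of biased ligands at MC4R; human U2OS cells with tagged receptor and beta-arrestin; potency of agonists that increase receptor coupling to beta-arrestin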
Sequence of Melanocortin receptor 4 (P32245 whole entry): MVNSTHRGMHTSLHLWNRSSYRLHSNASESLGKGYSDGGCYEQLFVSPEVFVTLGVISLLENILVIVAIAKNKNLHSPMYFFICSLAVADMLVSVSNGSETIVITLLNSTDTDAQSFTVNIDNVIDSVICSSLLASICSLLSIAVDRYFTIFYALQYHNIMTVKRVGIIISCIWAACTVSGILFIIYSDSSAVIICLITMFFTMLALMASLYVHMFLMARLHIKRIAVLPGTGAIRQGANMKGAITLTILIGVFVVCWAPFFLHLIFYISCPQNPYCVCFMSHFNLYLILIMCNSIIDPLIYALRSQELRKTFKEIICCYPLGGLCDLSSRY

Compound: CC(/C=C1\SC(=S)N(c2ccc(C(=O)O)cc2)C1=O)=C\c1ccccc1
- EC50 (HEK293 [1]): 8.26 µM (active)
- IC50 (Cysteine protease ATG4B): 5.25 µM (active)
- IC50 (HEK293 [2]): > 20 µM (inactive)
- IC50 (HEK293 [3]): 5.93 µM (active)
- IC50 (Genome polyprotein): 33.7 µM (active)
- IC50 (Phospholipase A2): 1.88 µM (active)
- IC50 (HEK293 [4]): 4.09 µM (active)
- IC50 [5]: 3.09 µM (active)

- IC50 [6]: 16 µM (active)
- AC50 (Cytochrome P450 1A2): 8.91 µM (inconclusive)
- AC50 (Cytochrome P450 2D6): 25.1 µM (inconclusive)
- AC50 (Cytochrome P450 3A4): 17.8 µM (inconclusive)
- EC50 [7]: > 53 µM (inactive)
- IC50 [8]: 9.86 µM (active)
Compound: O=C1CC(c2cccc(F)c2)SC(N(c2ccccc2)c2ccccc2)=N1 (configuration not stated)

- IC50 (Genome polyprotein): 81.6 µM (active)
- IC50 [9]: > 66 µM (inactive)
- AC50 [10]: 24.6 µM (active)
- IC50 [11]: > 66 µM (inactive)
Compound: COC(=O)C1=C(C(=O)OC)C(c2cc(Br)ccc2O)c2sc(O)nc2S1 (configuration not stated)

- AC50 (Cytochrome P450 2C9): 17.8 µM (inconclusive)
- IC50 [6]: > 20 µM (inactive)
- EC50 [7]: > 53 µM (inactive)
- IC50 [8]: 8.51 µM (active)
Compound: COc1ccc(C(C(=O)NC2CCCCC2)N(C(=O)c2sc(C)nc2C)c2ccc(OC)cc2)cc1 (configuration not stated)

Compound: CCCCOc1ccccc1C1C(C(=O)OC)=CN(CC)C=C1C(=O)OC
- IC50 [6]: 16 µM (active)
- EC50 [12]: > 112 µM (not active)
- EC50 [7]: > 53 µM (inactive)
- EC50 [13]: > 112 µM (not active)
- IC50 [8]: 3.74 µM (active)

- IC50 [14]: 14.3 µM (active)
- IC50 [15]: 31.6 µM (active)
Compound: COc1ccc(Br)cc1CNC(=O)CN1C(=O)C(c2ccccc2)Oc2cccnc21 (configuration not stated)

- EC50 [16]: > 300 µM (not active)
- IC50 [17]: > 100 µM (inactive)
- IC50 [18]: 23.5 µM (active)
- EC50 [19]: 10.1 µM (inconclusive)
- IC50 (Prothrombin): 36.3 µM (active)
Compound: COc1ccccc1N1C(=O)S/C(=C\c2ccc(C)s2)C1=O

- IC50 [17]: > 100 µM (inactive)
- IC50 [18]: 19.3 µM (active)
- IC50 (Prothrombin): 19.5 µM (active)
Compound: O=C(CCN1C(=O)NC2(CCCC2)C1=O)Nc1ccc(-c2nc3ccccc3s2)cc1

- IC50 (Cysteine protease ATG4B): 29.9 µM (inactive)
- IC50 (Phospholipase A2): 16.8 µM (active)
Compound: Cc1ccccc1S(=O)(=O)Nc1nc2ccccc2nc1N1CCc2ccccc2C1

- EC50 (Melanocortin receptor 4): > 89.2 µM (inactive)
Compound: CCOc1ccc(NC(=O)CSc2nc(-c3cccs3)cc(C(F)(F)F)n2)c([N+](=O)[O-])c1

- IC50 [14]: 7.43 µM (active)
- IC50 [15]: 23.6 µM (active)
Compound: O=C(CC1N=C2c3ccccc3N=C(SCc3ccc(Cl)cc3)N2C1=O)NCc1ccco1 (configuration not stated)

- EC50 (Melanocortin receptor 4): > 89.2 µM (inactive)
Compound: Cc1cc(C)c(CN2CCN(CCCn3cnc(C(=O)Nc4ccc(C)c(C)c4)n3)CC2)c(C)c1

- EC50 (Melanocortin receptor 4): > 89.2 µM (inactive)
Compound: O=C(NC(c1ccc(Cl)cc1)c1cccnc1)C1CCN(CCOc2ccc(Cl)cc2Cl)CC1 (configuration not stated)

Compound: Cc1ccc(OC(=O)N(C)C[C@@H]2OCc3cnnn3CCCC(=O)N([C@@H](C)CO)C[C@@H]2C)cc1
- IC50 [6]: > 20 µM (inactive)
- EC50 [7]: > 53 µM (inactive)
- IC50 [8]: < 0.368 µM (active)
